Data taken from article PMC11963559, “Identification of novel thiazole derivatives as flaviviral protease inhibitors effective against Dengue (DENV2) and Japanese encephalitis viruses” (Antimicrobial Agents and Chemotherapy, 2025).

target: T1, DENV2 NS2B–NS3 protease (Dengue virus type 2, UniProt P14340); experiment: In vitro DENV2 NS2B/NS3pro inhibition assay using a FRET substrate; type: biochemical; conditions: 5 µM substrate, 10 nM NS2b-NS3pro, compounds at 1, 10 and 100 µM, 1 h at RT; compounds 3s-3an
T1 construct: Activity of recombinant dengue 2 virus NS3 protease in the presence of a truncated NS2B co-factor; The N-terminal domain of NS3 contains a highly conserved protease-active core; made in house; host or cells: Escherichia coli BL21(DE3)
Description: To assess the anti-DENV NS2B–NS3 activity of the compounds, we expressed the DENV2 NS2B–NS3 protease in BL21DE3 cells and subsequently purified it using Ni-NTA affinity chromatography, as outlined in Materials and Methods ([39], [40]). The protease activity assay was performed using different concentrations (1, 2.5, 5, 10, 25, 50, 75, and 100 µM) of a fluorogenic substrate (Abs-Nle-Lys-Arg-Arg-Ser-3-(NO2)Tyr) at various time points (5, 15, 30, 45, and 60 min), as described previously ([39], [41]). […] Therefore, all subsequent assays were conducted with a 1 h incubation time.
The selected compounds were analyzed using in vitro protease assays performed in black 96-well plates. […] All assays were performed in triplicate. The release of free AMC was measured using a Varioskan LUX multimode microplate reader (Thermo Fisher Scientific) at excitation and emission wavelengths of 380 and 460 nm, respectively. Control fluorescence values obtained in the absence of inhibitors were considered 100%, and those obtained in the presence of inhibitors were calculated as the percentage of inhibition of the control using Microsoft Excel and plotted using Origin Pro 2023b. The background AMC in the absence of protease was subtracted before data analysis. Further, protease assay was done using different concentration of the compounds (1, 10, and 100 µM) to evaluate the IC50 for the in vitro assay. IC50 curves were fitted and determined by fitting the nonlinear equation in Origin2023b software. A similar approach was used to analyze the enzymatic kinetics of protease inhibition. The reaction progress was monitored by the release of free aminomethylcoumarin (AMC), as previously described. The substrate was incubated with or without the inhibitor in the aforementioned reaction buffer in the presence of varying concentrations of the substrate. The reactions were initiated by the addition of the NS2B–NS3 protease. Protease activity was monitored for 1 h based on the initial rate of increase in fluorescence intensity at 460 nm, with an excitation wavelength of 380 nm. The results were analyzed using Origin Pro 2023b and the Michaelis–Menten equation to obtain the apparent Michaelis–Menten constants and maximal velocities. All assays were performed in triplicate. For each tested compound, two different concentrations of the inhibitor (0, 10, and 25 µM) were used at various concentrations (0–250 μM) of the substrate. The mechanism of inhibition was determined by observing the deviations in the apparent Km and Vmax values.

T1 sequence (P14340 1476-1653): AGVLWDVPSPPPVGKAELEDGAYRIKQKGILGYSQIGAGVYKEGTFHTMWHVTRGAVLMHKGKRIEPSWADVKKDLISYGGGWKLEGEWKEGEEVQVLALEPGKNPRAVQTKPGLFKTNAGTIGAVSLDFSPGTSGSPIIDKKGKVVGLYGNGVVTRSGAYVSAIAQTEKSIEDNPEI
T1 sequence (P14340 1398-1437): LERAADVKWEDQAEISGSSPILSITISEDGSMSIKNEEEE

Row | SMILES | IC50 (µM), DENV protease inhibitory activity
1 | COc1ccc(OC)c(/C(C)=N/Nc2nc(-c3cccc([N+](=O)[O-])c3)cs2)c1 [3aa] | completely lost its activity

same assay, conditions: IC50 (µM), DENV2 NS2B–NS3 protease inhibitory activity, 5 µM substrate, 10 nM NS2b-NS3pro, compounds at 1, 10 and 100 µM, 1 h at RT; compounds 3a-3r

Row | SMILES | IC50
2 | Cc1cc(C)cc(/C=N/Nc2nc(-c3ccc(Cl)cc3)cs2)c1 [3k] | > 100 µM
3 | COc1ccccc1/C=N/Nc1nc(-c2cccc([N+](=O)[O-])c2)cs1 [3c] | 229 µM
4 | O=[N+]([O-])c1cccc(-c2csc(N/N=C/c3cccc(Cl)c3)n2)c1 [3g] | 299 µM
5 | Cc1ccc(/C=N/Nc2nc(-c3cccc([N+](=O)[O-])c3)cs2)cc1 [3a] | > 100 µM
6 | COc1ccccc1/C=N/Nc1nc(-c2ccc(Cl)cc2)cs1 [3l] | > 100 µM
7 | COc1ccc(OC)c(/C=N/Nc2nc(-c3cccc([N+](=O)[O-])c3)cs2)c1 [3d] | 139 µM
8 | Cc1ccc(/C=N/Nc2nc(-c3ccc(Cl)cc3)cs2)cc1 [3j] | 603 µM
9 | Clc1ccc(-c2csc(N/N=C/c3cccc(Cl)c3)n2)cc1 [3p] | > 100 µM
10 | O=[N+]([O-])c1cccc(-c2csc(N/N=C/c3cccc(Br)c3)n2)c1 [3i] | 413 µM
11 | Clc1ccc(-c2csc(N/N=C/c3cccc(Br)c3)n2)cc1 [3r] | > 100 µM
12 | O=[N+]([O-])c1cccc(-c2csc(N/N=C/c3ccccc3Br)n2)c1 [3h] | 342 µM
13 | Cc1cc(C)cc(/C=N/Nc2nc(-c3cccc([N+](=O)[O-])c3)cs2)c1 [3b] | > 100 µM
14 | COc1ccc(OC)c(/C=N/Nc2nc(-c3ccc(Cl)cc3)cs2)c1 [3m] | 216 µM
15 | Clc1ccc(-c2csc(N/N=C/c3ccccc3Br)n2)cc1 [3q] | > 100 µM
16 | COc1ccc(/C=N/Nc2nc(-c3ccc(Cl)cc3)cs2)cc1OC [3n] | 248 µM
17 | Fc1ccccc1/C=N/Nc1nc(-c2ccc(Cl)cc2)cs1 [3o] | > 100 µM
18 | COc1ccc(/C=N/Nc2nc(-c3cccc([N+](=O)[O-])c3)cs2)cc1OC [3e] | 502 µM
19 | O=[N+]([O-])c1cccc(-c2csc(N/N=C/c3ccccc3F)n2)c1 [3f] | 117 µM

same assay, conditions: IC50 (µM), DENV protease inhibitory activity, 5 µM substrate, 10 nM NS2b-NS3pro, compounds at 1, 10 and 100 µM, 1 h at RT; compounds 3ao–3av

Row | SMILES | IC50
20 | C/C(=N\Nc1nc(-c2ccc(F)cc2)cs1)c1ccc(O)cc1 [3ar] | 250 µM
21 | C/C(=N\Nc1nc(-c2ccccc2)cs1)c1ccc(O)cc1 [3ao] | 114 µM
22 | C/C(=N\Nc1nc(-c2ccc(C)cc2)cs1)c1ccc(O)cc1 [3ap] | 56 µM
23 | C/C(=N\Nc1nc(-c2ccc(F)cc2)cs1)c1cc(O)cc(O)c1 [3av] | 37.1 µM
24 | C/C(=N\Nc1nc(-c2ccccc2)cs1)c1cc(O)cc(O)c1 [3as] | > 100 µM
25 | C/C(=N\Nc1nc(-c2ccc(C)cc2)cs1)c1cc(O)cc(O)c1 [3at] | 27.7 µM

same assay, conditions: IC50 (µM), DENV protease inhibitory activity, 5 µM substrate, 10 nM NS2b-NS3pro, compounds at 1, 10 and 100 µM, 1 h at RT; compounds 3s-3an

Row | SMILES | IC50
26 | COc1cccc(/C(C)=N/Nc2nc(-c3cccc([N+](=O)[O-])c3)cs2)c1 [3x] | 387 µM
27 | C/C(=N\Nc1nc(-c2cccc([N+](=O)[O-])c2)cs1)c1ccc(Cl)cc1 [3ac] | > 100 µM
28 | C/C(=N\Nc1nc(-c2ccc(Cl)cc2)cs1)c1ccc(O)cc1 [3af] | 144 µM
29 | COc1ccc(OC)c(/C(C)=N/Nc2nc(-c3cccc([N+](=O)[O-])c3)cs2)c1 [3aa] | > 100 µM
30 | C/C(=N\Nc1nc(-c2cccc([N+](=O)[O-])c2)cs1)c1ccc(O)cc1 [3u] | 28.7 µM
31 | COc1ccc(/C(C)=N/Nc2nc(-c3cccc([N+](=O)[O-])c3)cs2)c(OC)c1 [3z] | 171 µM
32 | C/C(=N\Nc1nc(-c2ccc(Cl)cc2)cs1)c1cc(O)cc(O)c1 [3ag] | 92.3 µM
33 | COc1ccc(/C(C)=N/Nc2nc(-c3cccc([N+](=O)[O-])c3)cs2)cc1 [3y] | 328 µM
34 | COc1ccc(/C(C)=N/Nc2nc(-c3cccc([N+](=O)[O-])c3)cs2)cc1OC [3ab] | 31.4 µM
35 | COc1ccccc1/C(C)=N/Nc1nc(-c2cccc([N+](=O)[O-])c2)cs1 [3w] | 193 µM
36 | COc1ccc(/C(C)=N/Nc2nc(-c3ccc(Cl)cc3)cs2)cc1 [3ai] | 399 µM
37 | C/C(=N\Nc1nc(-c2cccc([N+](=O)[O-])c2)cs1)c1ccc(F)cc1 [3ad] | > 100 µM
38 | C/C(=N\Nc1nc(-c2ccc(Cl)cc2)cs1)c1ccc(C)cc1 [3ae] | > 100 µM
39 | C/C(=N\Nc1nc(-c2cccc([N+](=O)[O-])c2)cs1)c1cc(O)cc(O)c1 [3v] | 27.4 µM
40 | C/C(=N\Nc1nc(-c2cccc([N+](=O)[O-])c2)cs1)c1ccc(C)cc1 [3t] | 113 µM
41 | COc1ccc(/C(C)=N/Nc2nc(-c3ccc(Cl)cc3)cs2)c(OC)c1 [3aj] | > 100 µM
42 | COc1ccc(/C(C)=N/Nc2nc(-c3ccc(Cl)cc3)cs2)cc1OC [3al] | 156 µM
43 | COc1ccc(OC)c(/C(C)=N/Nc2nc(-c3ccc(Cl)cc3)cs2)c1 [3ak] | 124 µM
44 | COc1cccc(/C(C)=N/Nc2nc(-c3ccc(Cl)cc3)cs2)c1 [3ah] | 263 µM
45 | C/C(=N\Nc1nc(-c2ccc(Cl)cc2)cs1)c1ccc(F)cc1 [3an] | > 100 µM

same assay, conditions: protease IC50, -H replaced by -CH3 at R1

Row | SMILES | fold improvement in potency in comparison with 3e
46 | COc1ccc(/C(C)=N/Nc2nc(-c3cccc([N+](=O)[O-])c3)cs2)cc1OC [3ab] | ~ 16 fold
